From EP1038880B1, “Androstanes and pregnanes for allosteric modulation of GABA receptor” (priority 1994, dated 1995)

Tests used:
Sprague-Dawley rats = assay: Geller-Seifter conflict test; type: in vivo
Excerpt: This animal model of human anxiety utilizes a conditioned state of conflict in rats to ascertain the anxiolytic properties of drugs. […] The first includes bar pressing under a variable […] schedule without punishment. The second component is a fixed ratio schedule with each bar press resulting in a positive reinforcement and a punishment. The punished component produces a state of conflict within the animal. […] An anxiolytic response would increase the punished responding without affecting the unpunished responding.
Rats were housed individually under a 12-hour light-dark cycle with lights on from 0700-1900.
Rats were trained in test chambers (Coulbourn instruments) with a lever mounted in one wall, a small dipper that delivered the 0.1-mL milk reward (1 part Eagle condensed : milk 2 parts water), and a metal grid floor through which the foot-shock punishment was administered. A DEC PDP 11/73 minicomputer nmning SKED (State Systems) was used for programming and recording.
Rates initially learned to respond on a continuous reinforcement schedule and progressed rapidly to 30-sec, 1-min, and 2-min variable interval (VI) schedules. On the continuous reinforcement schedule, rats received milk reward following every lever press; on the VI schedules, milk rewards were available at infrequent and variable intervals, eventually at an average of once every 2 min. […] During conflict periods, which were signalled by the presentation of a light and a tone, the continuous reinforcement schedule was again in force and each lever press delivered both a milk reward and a brief ([…]) foot-shock Shock intensity was 0.2 mA initially, and.was increased daily in increments of 0.02 mA in order to gradually suppress lever pressing to 5 responses or less per conflict period. […] Drug-induced increases in the rate of punished responses were taken as an index of antianxiety activity, while decreases in the rate of unpunished responses were taken as an index of response depression or sedation.

[1] = tested on: Bovine Uteral Progesterone Receptors; assay: Inhibition of 3H-progesterone binding, uterus cytosol; settings: competitor 10^-6M; 3H-progesterone 0.15 nM
Experimental: The data presented were obtained by performing assays in accordance with the procedures described in et al. 1988 previously to determine the effect of progesterone metabolites and their derivatives and the progestin R5020 on the binding of [^3H]R5020 to the progesterone receptor in rat uterus (Gee et al. 1988).
^3H-progesterone (0.15 nM) was incubated with the rat uterus cytosol in the presence of the test compounds. The specific binding were determined after incubation and compared to the control incubation without the compounds. The data are expressed as percent inhibition of binding.
In Table 3, rats were adrenalectomized 3 days prior to sacrifice. To isolate the mineralocorticoid receptor, brain cytosol fractions were prepared as describe in Gee, et al. 1988. The drugs were incubated with 3 nM of ^3H-aldosterone (the specific ligand for the mineralocorticoid receptor) in the presence of the selective type II agonist RU28362 (0.5 µM) which blocks ^3H-aldosterone binding to the type II (glucocorticoid) receptors. Table 2. Inhibition of 3H-Progesterone Binding to the Bovine Uteral Progesterone Receptors

[2] = target: T1, Hippocampal Mineralocorticoid Receptors (Rattus norvegicus, UniProt P22199); assay: Inhibition of 3H-aldosterone binding, brain cytosol; parameters: species or system rats; settings: competitor 10^-6M; 3 nM 3H-aldosterone, RU28362 0.5 µM
T1 construct: To isolate the mineralocorticoid receptor, brain cytosol fractions were prepared; from tissue; host or cells: rat brain (hippocampal) cytosol
T1 sequence (P22199 1-981): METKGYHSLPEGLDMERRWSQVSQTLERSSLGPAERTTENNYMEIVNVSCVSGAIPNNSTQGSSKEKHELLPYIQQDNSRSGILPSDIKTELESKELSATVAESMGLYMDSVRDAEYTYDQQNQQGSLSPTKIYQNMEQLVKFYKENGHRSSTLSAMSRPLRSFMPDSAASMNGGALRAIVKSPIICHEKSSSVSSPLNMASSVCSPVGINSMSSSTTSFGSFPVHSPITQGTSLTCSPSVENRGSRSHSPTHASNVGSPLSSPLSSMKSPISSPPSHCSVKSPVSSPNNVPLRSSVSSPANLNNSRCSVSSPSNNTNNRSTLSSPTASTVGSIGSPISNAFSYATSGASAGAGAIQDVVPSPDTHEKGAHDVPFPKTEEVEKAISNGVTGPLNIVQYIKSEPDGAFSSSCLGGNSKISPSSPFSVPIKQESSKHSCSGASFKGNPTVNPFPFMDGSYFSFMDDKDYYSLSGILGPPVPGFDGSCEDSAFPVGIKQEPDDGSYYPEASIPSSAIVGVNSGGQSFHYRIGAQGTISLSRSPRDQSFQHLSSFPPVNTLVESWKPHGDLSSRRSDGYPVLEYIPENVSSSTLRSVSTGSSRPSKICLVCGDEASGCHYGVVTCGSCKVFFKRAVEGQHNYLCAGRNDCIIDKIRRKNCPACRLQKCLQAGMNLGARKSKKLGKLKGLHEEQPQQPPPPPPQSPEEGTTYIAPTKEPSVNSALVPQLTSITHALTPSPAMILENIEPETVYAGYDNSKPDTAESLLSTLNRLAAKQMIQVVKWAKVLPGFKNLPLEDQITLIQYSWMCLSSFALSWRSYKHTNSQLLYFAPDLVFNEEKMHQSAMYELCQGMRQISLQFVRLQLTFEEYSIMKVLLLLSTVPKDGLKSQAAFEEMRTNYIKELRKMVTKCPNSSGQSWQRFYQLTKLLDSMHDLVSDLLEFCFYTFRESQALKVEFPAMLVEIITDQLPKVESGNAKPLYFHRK
Experimental: (§1) Various hormonal activities of representative neuroactive steroids were further studied through testing their potential estrogenic, mineralocorticoid and glucocorticoid activities. These activities were analyzed by monitoring the ability of the compounds to inhibit binding of the steroid hormones to their respective hormone receptors.
In Table 3, rats were adrenalectomized 3 days prior to sacrifice. […] Table 2. Inhibition of 3H-Progesterone Binding to the Bovine Uteral Progesterone Receptors
Table 3. Inhibition of 3H-Aldosterone Binding to Hippocampal Mineralocorticoid Receptors

Glucocorticoid Receptors = target: T2, Glucocorticoid Receptors (Rattus norvegicus, UniProt P06536); assay: Inhibition of 3H-dexamethasone binding, brain cytosol; parameters: species or system rats; dose or concentration left out as unconfirmed; settings: read-out: % of Inhibition
T2 construct: from tissue; host or cells: rat brain cytosol
T2 sequence (P06536 1-795): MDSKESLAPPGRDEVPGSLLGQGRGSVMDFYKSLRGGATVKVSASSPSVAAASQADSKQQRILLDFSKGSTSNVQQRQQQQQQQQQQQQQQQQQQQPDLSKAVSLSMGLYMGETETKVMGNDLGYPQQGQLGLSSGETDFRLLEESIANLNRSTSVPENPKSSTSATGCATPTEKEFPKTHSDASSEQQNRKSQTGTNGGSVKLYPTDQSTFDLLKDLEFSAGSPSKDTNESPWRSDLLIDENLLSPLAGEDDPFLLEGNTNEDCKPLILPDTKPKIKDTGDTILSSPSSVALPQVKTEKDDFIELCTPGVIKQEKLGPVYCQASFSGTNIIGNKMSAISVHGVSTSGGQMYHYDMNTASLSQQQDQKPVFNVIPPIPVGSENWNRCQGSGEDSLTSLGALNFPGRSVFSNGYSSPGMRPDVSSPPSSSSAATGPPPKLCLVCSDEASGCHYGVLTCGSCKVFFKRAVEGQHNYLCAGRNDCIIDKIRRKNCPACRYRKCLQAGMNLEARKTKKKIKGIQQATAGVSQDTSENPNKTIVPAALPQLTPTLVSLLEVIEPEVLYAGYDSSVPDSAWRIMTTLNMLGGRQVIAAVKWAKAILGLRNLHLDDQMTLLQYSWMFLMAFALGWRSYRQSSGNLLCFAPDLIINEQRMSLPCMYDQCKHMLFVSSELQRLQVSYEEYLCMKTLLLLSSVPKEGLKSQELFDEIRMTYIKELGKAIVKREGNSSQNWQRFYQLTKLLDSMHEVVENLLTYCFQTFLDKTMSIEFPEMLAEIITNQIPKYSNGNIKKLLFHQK
Experimental: as §1
For Table 4, brain cytosol fractions were prepared as for Table 3, and the compounds were incubated with 3 nM of ^3H-dexamethasone (the specific ligand for the glucocorticoid receptor).

tonic seizure = assay: Maximal electroshock test; type: in vivo; settings: Mus musculus, ip, steroids i.p., mice
Experimental: (§2) The anticonvulsant tests are similar to that described above. […] The number of animals with tonic and/or clonic convulsions was recorded. In the maximal electroshock test, 50 mA of current at 60 Hz was delivered through corneal electrodes for 200 msec to induce tonic seizure. The ability of compounds to abolish the tonic component was defined as the endpoint. General CNS depression potential was determined by a rotorod test 10 minutes after the injection of compounds where the number of mice staying on a rotating (6 rpm) rod for 1 minute in one of the three trials was determined. […] Table 7. Anticonvulsant Activity of Exemplified Neuroactive Steroids and those of Selected Clinically Useful Anticonvulsants in Mice

(+)bicuculline = assay: Anticonvulsant test against (+)bicuculline; type: in vivo, mice; settings: Mus musculus, read-out: ED50 BIC
Experimental: as §2

[3] = tested on: metrazol induced convulsions; assay: animal or person; type: in vivo, mice; settings: Mus musculus; metrazol 85 mg/kg s.c., steroids i.p., mice
strychnine = assay: Anticonvulsant test against strychnine; type: in vivo, mice; settings: Mus musculus, read-out: ED50 STR
Experimental: as §2

picrotoxin = assay: Anticonvulsant test against picrotoxin; type: in vivo, mice; settings: Mus musculus, read-out: ED50 PICRO
Experimental: as §2

[4] = tested on: N.I.H. Swiss-Webster mice; assay: Light/dark transition test; type: in vivo; settings: IP, 10 min test, vs control, Dunnett's t-test (Fig. 8)
Experimental: Male N.I.H. Swiss-Webster mice (Harlan, Harlan, Indianapolis, IN) weighing 15-20 g were housed four per cage in polyethylene cages with sawdust bedding. The colony room was environmentally controlled (22°C) with a hr light/dark cycle (0600-1800hr). Food and water were available ad libitum, except during testing. The experiments were run from 0700-1500 hr and groups were counterbalanced for time of day effects. Mice were only administered drug or vehicle once.
The apparatus included two 2-compartment automated test chambers (Model RXYZCM16, Omnitech Electronics, Columbus, OH). The open compartment was connected to the enclosed compartment via a 7.5 × 7.5 cm passageway. The open compartment was brightly lit using a 200 W incandescent light bulb. The experimental room was kept dark. Interruptions of the infrared beams in either chamber were automatically recorded by being linked to a computer through a Digiscan Analyzer (Omnitech and the data was analyzed using the Integrated Lab Animal Monitoring System (Omnitech Electronics). N.IH. Swiss-Webster mice were administered vehicle or test drug intraperiotoneally (IP),10 min later they were placed in the center of the lit compartment. The number of transitions between the lit and dark chambers, total activity in the lit chamber and the time spent in the lit chamber were measured during a 10 min test period.

mice = assay: Loss-of-righting reflex (anesthetic activity); type: in vivo; settings: iv
Experimental: The compounds of and used in the invention can also be used for anesthetic indications at high doses. However, the preferred route of administration to induce anesthesia is intravenous (i.v.) administration. In animals, a drug's anesthetic properties is measured by the drug's ability to produce a loss-of-righting reflex. The loss-of-righting reflex is defined as the inability of an animal to right itself within […] on its back. Mice were administered drug i.v. in the lateral tail vein. Following administration, mice were placed on their backs and observed for loss-of-righting reflex. Table 12. Anesthetic Activity of Neuroactive Steroids in Mice

GR complex = assay: [35S]TBPS binding assay (inhibition of [35S]TBPS binding, cerebral cortex P2 homogenate); parameters: species or system rat
Summary of the method: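 Rat (male Sprague-Dawley) cortical P2 homogenate (0.5 mg protein) in 50 mM Na/K phosphate pH 7.4, 200 mM NaCl, incubated with 2 nM [35S]TBPS plus steroid test compounds (DMSO) in presence of GABA plus (+)bicuculline, 25°C, 90 min. Filtration, scintillation counting; nonspecific binding defined with […].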

With `CCOC[C@@]1(O)CC[C@@]2(C)[C@@H](CC[C@@H]3[C@@H]2CC[C@]2(C)[C@@H](C(C)=O)CC[C@@H]32)C1` [3α-hydroxy-3β-ethoxymethyl-5α-pregnan-20-one] the “Geller/ Seifter (% of control)” value (Sprague-Dawley rats; IP, 50% hpbcd, 40 mg/kg) was 3743 % of control.

In the case of `CC(C)(O)[C@H]1CC[C@H]2[C@@H]3CC[C@H]4C[C@H](O)CC[C@]4(C)[C@H]3CC[C@]12C` [5α-pregnan-20-dimethyl-3α,20-diol], the “% of Inhibition” value [1] is reported as 0%, the inhibition at 1 µM [2] is reported as 0% and the inhibition (Glucocorticoid Receptors) is reported as 2.6%.

For `CC(=O)[C@H]1CC[C@H]2[C@@H]3CC[C@H]4C[C@](C)(O)CC[C@]4(C)[C@H]3CC[C@]12C` [3α-hydroxy-3β-methyl-5α-pregnan-20-one], the ED50 (tonic seizure) was > 100 mg/kg, the “% of Inhibition” value [1] was 4% and the inhibition at 1 µM [2] was 3.2%. For the same compound, the ED50 ((+)bicuculline) was 61.9 mg/kg, the inhibition (Glucocorticoid Receptors) was 0.6% and the ED50 [3] was 6.3 mg/kg. The ED50 (strychnine) was > 100 mg/kg and the ED50 (picrotoxin) was 35.4 mg/kg.

In the case of `CC(=O)[C@H]1CC[C@H]2[C@@H]3CC[C@@H]4C[C@H](O)CC[C@]4(C)[C@H]3CC[C@]12C` [5β-pregnan-3α-ol-20-one, 3α-OH-5β-pregnan-20-one], the “% of Inhibition” value [1] is reported as 9% and the “number of transitions between the dark box and the light box, in words” value [4] is reported as “significantly increased”.

For `C[C@]12CC[C@@H](O)C[C@H]1CC[C@@H]1[C@@H]2CC[C@]2(C)[C@@H](C(=O)CO)CC[C@@H]12` [5β-pregnan-3α,21-diol-20-one], the “% of Inhibition” value [1] was 6%, the inhibition at 1 µM [2] was 13.8% and the inhibition (Glucocorticoid Receptors) was 8.2%.

`CC(=O)[C@H]1CC[C@H]2[C@@H]3CC[C@@H]4C[C@@](O)(C#CCl)CC[C@]4(C)[C@H]3CC[C@]12C` [3β-(Chloroethynyl)-3α-hydroxy-5β-pregnan-20-one] was tested, and the “Loss-of-Righting Reflex” value (mice; 20 mg/kg) was 100.

In the case of `CC(=O)[C@H]1CC[C@H]2[C@@H]3CC[C@H]4C[C@H](O)CC[C@]4(C)C3=CC[C@]12C` [3α-Hydroxy-5α-pregn-9-en-20-one], the “Loss-of-Righting Reflex” value (mice; 10 mg/kg) is reported as 100.

For `CO/C=C1/CC[C@H]2[C@@H]3CC[C@H]4C[C@H](O)CC[C@@H]4[C@H]3CC[C@]12C` [3α-Hydroxy-17(Z)-methoxymethylene-19-nor-5α-androstane], the “Loss-of-Righting Reflex” value (mice; 5 mg/kg) was 75.

For `COC[C@@]1(O)CC[C@@]2(C)[C@@H](CC[C@@H]3[C@@H]2CC[C@]2(C)[C@@H](C(C)=O)CC[C@@H]32)C1` [3α-Hydroxy-3β-methoxymethyl-5α-pregnan-20-one], the “Geller/ Seifter (% of control)” value (Sprague-Dawley rats; IP, 50% hpbcd, 10 mg/kg) was 958 % of control.

In the case of `CC(=O)C1CCC2C3CCC4CC(O)(C(F)(F)F)CCC4(C)C3C(N(C)C)CC12C` (stereo not drawn) [11α-N,N-Dimethylamino-3α-hydroxy-3β-trifluoromethyl-5β pregnan-20-one], the “Geller/ Seifter (% of control)” value (Sprague-Dawley rats; IP, citrate, 20 mg/kg) is reported as 145 % of control.

With `COCC1(O)CCC2(C)C(CCC3C2CCC2(C)C(C(=O)CSS(=O)(=O)[O-])CCC32)C1.[Na+]` (stereo not drawn) [sodium S-(3α-hydroxy-3β-methoxymethyl-5α-pregnan-20-on-21-yl) thiosulfate] the IC50 (GR complex; 2 nM [35S]TBPS, rat cerebral cortex P2 homogenate) was 132 nM, the IMAX (GR complex; maximum inhibition of [35S]TBPS binding) was 103% and the “Geller/ Seifter (% of control)” value (Sprague-Dawley rats; PO, water, 32 mg/kg) was 4487.5 % of control.
